Experimental data published in US5532229A, “Topical administration of vitamin D to mammals” (priority 1994, dated 1996).

Tests used:
[1] = application to skin of rats; cited from earlier work
[2] = oral, in chylomicrons; cited from earlier work
[3] = Experiment 2: uptake of [14C]-vitamin D3 tracer into serum and conversion to [14C]-25(OH)D3; type: in vivo, Male Wistar rats
Experimental: One dose of [carbon-14]-labelled vitamin D3 was given at the time of the last of 14 daily doses of nonradioactive vitamin D3. The graphs show the uptake and metabolism of one [^14 C]-vitamin D3 dose during the course of gastric or dermal supplementation with vitamin D3. The tracer was given in addition to the usual, 8 μg/day vitamin D3 dose, and by the same route. Radioactivity in serum was isolated by chromatography to measure that which elutes as vitamin D3, or as […], Each point is the mean of results from six rats;
Uptake of radioactive vitamin D3 from skin or gut during the longer term treatment with vitamin D3 at 20 nmol/day.
The previous experiment 1 involved only one acute dose of a minute, tracer amount of vitamin D3. It remained possible that dermal application could not deliver a larger, more nutritionally relevant amount of vitamin D3. This experiment 2 looked at what happens when vitamin D3 is given during the course of daily treatment with a moderate amount of vitamin D3.
After 30 days, the rats were divided into three groups of 6: one group continued with no supplement, one group was given daily vitamin D3 supplement, 8 μg/day either by gastric tube, the third received the supplement by application to the skin in 50 μL ethanol. Vitamin D3 was given for 3 wk. The day before the rats were killed, the vitamin D3 dose was supplemented with [^14 C]-labelled vitamin D3, 915,000 cpm per rat. Blood was obtained from the tail of each rat at 3 h, 9 h, and by heart puncture when the rats were anesthetized for killing, 24 h after giving the tracer. The blood was extracted and chromatographed to distinguish [^14 C]-vitamin D3 from the [^14 C]-25(OH)D3generated from it. Radioactivity was also measured in the liver, kidney, and adipose tissue. Serum nonradioactive 25(OH)D3 was also measured.

[4] = Experiment 5: [14C]-vitamin D3 left on skin at application site; type: in vivo, Male Wistar rats; settings: for % [14C]-D3 Left on Skin: 2 weeks, 1440 min
Experimental: This experiment was to compare potential toxic effects of vitamin D3 given for a 2 wk period, at the near-fatal dose of 800 μg per day by gastric tube, or by dermal administration at 800 μg/day or 2600 μg/day. Another goal was find evidence of saturable dermal uptake by including [^14 C]-vitamin D3 to monitor its removal from the skin at the high doses of vitamin D3.
Male Wistar rats, 190±10 g were obtained and divided into three groups of 7. They were treated for 2 weeks with one the following: 2000 nmol/day of vitamin D3 by gastric tube; 800 μg/day applied to a 2×2 cm patch of skin on the back; 2600 μg/day skin. The day before killing, 66,000 counts per minute of [^14 C]-vitamin D3 was applied along with the dermal dose to permit a determination of uptake from the skin. The rats were killed after two weeks for analysis of serum, urine, kidney, and aorta. The calcium in urine and acid-treated homogenate of kidney was measured by chemical colorimetry; aorta calcium was measured by treating with nitric acid measuring calcium by atomic absorption.

## C[C@H](CCCC(C)(C)O)[C@H]1CC[C@H]2C3=CC=C4CC(O)CC(O)[C@]4(C)[C@H]3CC[C@]12C (stereo partly shown) [1,25-dihydroxylated-7-dehydrocholesterol]
[1]
  intestinal calcium transport: increased
  serum calcium: increased

## C=C1CC[C@H](O)C/C1=C/C=C1\CCC[C@]2(C)[C@@H]([C@H](C)/C=C/[C@H](C)C(C)C)CC[C@@H]12 [vitamin D2]
[2]
  activation into 25-hydroxyvitamin D2: partially activated into 25-hydroxyvitamin D2 relatively quickly

## C=C1CC[C@H](O)[14CH2]/C1=C/C=C1\CCC[C@]2(C)[C@@H]([C@H](C)CCCC(C)C)CC[C@@H]12 [[^14 C]-vitamin D3]
[3]; dermal administration, after dosing
  time until [14C]-25(OH)D3 evident in serum: ≥ 24 h
[3]; oral dosing
  [14C]-25(OH)D3 detection in serum: detected in every sample
[4]; dermal 800 μg/day
  % [14C]-D3 Left on Skin: 47.8%
[4]; dermal 2600 μg/day
  % [14C]-D3 Left on Skin: 65.6%
[4]; dermal 800 vs 2600 μg/day
  proportion of administered vitamin D3 left in the skin, effect of dose: only marginally affected by the dose

## C=C1/C(=C\C=C2/CCC[C@]3(C)[C@@H]([C@H](C)CCCC(C)(C)O)CC[C@@H]23)C[C@@H](O)C[C@@H]1O [1,25(OH)2 D3]
[1]
  intestinal calcium transport: increased
  serum calcium: increased
